In patent US20240368163A1, “COMPOUNDS AND METHODS FOR MODULATING SPLICING” (REMIX THERAPEUTICS INC., priority 2021, published 2024):
Read-outs that look alike come from different tables or passages of the source.

What was measured:
Assay type in all cases: cell-based, human
HTT [1] = assay: Splicing RT-qPCR assay, HTT mRNA canonical junction (CJ) and alternative junction (AJ); conditions: Homo sapiens; for AC50: increase in AJ mRNA
Procedure, shortened: (§1)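 Cells: A673 (DMEM/10% FBS) or K562 (IMDM/10% FBS). Dose: 11-pt 3-fold, top 10 uM final, ≤0.25% DMSO, 24 h, 37 °C. Readout: RT-qPCR of CJ/AJ exon junctions, ΔΔCt vs housekeeper and DMSO, RQ to % response.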

SMN2 = assay: Splicing RT-qPCR panel, SMN2 canonical junction (CJ) mRNA; conditions: Homo sapiens, read-out: SMN2 IC50 (decrease in CJ mRNA levels)
Procedure, shortened: as §1

Target C [2] = assay: HiBiT protein abundance assay, Target C; conditions: Homo sapiens, K562, 24 h, modified K562 cells
Procedure, shortened: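 HiBiT knock-in K562-derived cells, 10000 cells/well, were treated 24 h at 37 °C with a 10-point 3-fold dilution series (top 10 μM final, DMSO ≤0.25%). Lytic HiBiT luminescence was normalized to unmodified K562 and DMSO controls; IC50 was interpolated at 50% from a four-parameter logistic fit.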

HTT [3] = assay: HiBiT protein abundance assay, HTT; conditions: Homo sapiens, K562, 24 h, modified K562 cells
Procedure, shortened: (§2)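 K562 cells with endogenous HiBiT-tagged target were treated 24 h at 37 °C with compound (10-point 3-fold dilution, top 10 μM final, DMSO ≤0.25%). Lytic LgBiT luminescence was normalized to unmodified K562 (baseline) and DMSO-treated tagged cells; IC50 interpolated at 50% from four-parameter logistic fit.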

MYB [4] = assay: Splicing RT-qPCR assay, MYB mRNA canonical junction (CJ) and alternative junction (AJ); conditions: Homo sapiens; for AC50: increase in AJ mRNA
Procedure, shortened: as §1

MYB [5] = assay: HiBiT protein abundance assay, MYB; conditions: Homo sapiens, K562, 24 h, modified K562 cells
Procedure, shortened: as §2

Target C [6] = assay: Splicing RT-qPCR panel, Target C canonical junction (CJ) mRNA; conditions: Homo sapiens, read-out: Target C IC50 (decrease in CJ mRNA levels)
Procedure, shortened: as §1

[7] = gene panel, CJ qPCR, protocol of Example 142, read-out: HTT IC50 (decrease in CJ mRNA levels)
[8] = gene panel, CJ qPCR, protocol of Example 142
[9] = gene panel, CJ qPCR, protocol of Example 142, read-out: MYB IC50 (decrease in CJ mRNA levels)
[10] = RT-qPCR panel, canonical junction mRNA, compound concentration having 50% response in CJ decrease, read-out: HTT IC50 (decrease in CJ mRNA levels)
[11] = RT-qPCR panel, canonical junction mRNA, compound concentration having 50% response in CJ decrease
[12] = RT-qPCR panel, canonical junction mRNA, compound concentration having 50% response in CJ decrease, read-out: MYB IC50 (decrease in CJ mRNA levels)
[13] = 24 h, decrease in CJ mRNA, A673 or K562 cells, 24 hours treatment, RT-qPCR, read-out: HTT CJ IC50
[14] = 24 h, A673 or K562 cells, 24 hours treatment, RT-qPCR
[15] = 24 h, decrease in CJ mRNA, A673 or K562 cells, 24 hours treatment, RT-qPCR, read-out: MYB CJ IC50

| SMILES | IC50 (HTT [1]; [10]) | IC50 (SMN2; [11]) | IC50 (Target C [2]; Table 13A) | IC50 (HTT [3]; Table 13A) | IC50 (MYB [4]; [12]) | IC50 (MYB [5]; Table 13A) | IC50 (Target C [6]; [11]) | IC50 (HTT [1]; [13]) | IC50 (MYB [4]; [15]) | IC50 (HTT [1]; [7]) | IC50 (SMN2; [8]) | IC50 (Target C [2]; Table 13B) | IC50 (HTT [3]; Table 13B) | IC50 (MYB [4]; [9]) | IC50 (MYB [5]; Table 13B) | IC50 (Target C [6]; [8]) | AC50 (HTT [1]; [14]) | AC50 (MYB [4]; [14]) |
| --- | --- | --- | --- | --- | --- | --- | --- | --- | --- | --- | --- | --- | --- | --- | --- | --- | --- | --- |
| COc1nc(-c2ccc(OC3CC4CCC(C3)N4)nn2)ccc1-n1cccn1 (stereo not drawn) [Compound 949] | – | – | – | – | – | – | – | – | – | 1000 to 10000 nM | 1000 to 10000 nM | 1000 to 10000 nM | 1000 to 10000 nM | > 10000 nM | 1000 to 10000 nM | > 10000 nM | – | – |
| CN(c1ncc(-c2ccc(-c3cn[nH]c3)c3ncsc23)nn1)[C@@H]1C[C@H]2CCC[C@@H](C1)N2 [Compound 449, (1S,5R)—N-methyl-N-[6-[4-(1H-pyrazol-4-yl)-1,3-benzothiazol-7-yl]-1,2,4-triazin-3-yl]-9-azabicyclo[3.3.1]nonan-3-amine] | < 100 nM | < 100 nM | < 100 nM | < 100 nM | 100 to 1000 nM | 100 to 1000 nM | < 100 nM | – | – | – | – | – | – | – | – | – | – | – |
| COc1nc(-c2ccc(N[C@@H]3C[C@H]4CC[C@@H](C3)N4)nn2)ccc1-n1cccn1 [Compound 948] | – | – | – | – | – | – | – | – | – | 100 to 1000 nM | 100 to 1000 nM | 100 to 1000 nM | 100 to 1000 nM | 1000 to 10000 nM | 100 to 1000 nM | 1000 to 10000 nM | – | – |
| CN1C[C@@H]2CN(c3ccc(-c4ccc(-c5cn[nH]c5)c5ncsc45)nn3)C[C@@H]2C1 [Compound 198] | > 10000 nM | 100 to 1000 nM | > 10000 nM | > 10000 nM | > 10000 nM | 1000 to 10000 nM | > 10000 nM | > 10000 nM | > 10000 nM | – | – | – | – | – | – | – | > 10000 nM | > 10000 nM |
| CN(c1ncc(-c2ccc(-c3cn[nH]c3)c3ncsc23)nn1)[C@@H]1CC2CCC[C@@H](C1)N2C [Compound 573] | 1000 to 10000 nM | > 10000 nM | 1000 to 10000 nM | 1000 to 10000 nM | > 10000 nM | 1000 to 10000 nM | > 10000 nM | – | – | – | – | – | – | – | – | – | – | – |
| [2H]C([2H])([2H])N(c1ccc(-c2ccc(-c3cn[nH]c3)c3ncsc23)nn1)C1CCNCC1 [Compound 223] | 1000 to 10000 nM | 100 to 1000 nM | 1000 to 10000 nM | 1000 to 10000 nM | 1000 to 10000 nM | 1000 to 10000 nM | 1000 to 10000 nM | 1000 to 10000 nM | 1000 to 10000 nM | – | – | – | – | – | – | – | 1000 to 10000 nM | > 10000 nM |

Further lines, with some results ahead:

| IC50 (HTT [1]; [10]) | IC50 (SMN2; [11]) | IC50 (Target C [2]; Table 13A) | IC50 (HTT [3]; Table 13A) | IC50 (MYB [4]; [12]) | IC50 (MYB [5]; Table 13A) | IC50 (Target C [6]; [11]) | IC50 (HTT [1]; [13]) | IC50 (MYB [4]; [15]) | SMILES | IC50 (HTT [1]; [7]) | IC50 (SMN2; [8]) | IC50 (Target C [2]; Table 13B) | IC50 (HTT [3]; Table 13B) | IC50 (MYB [4]; [9]) | IC50 (MYB [5]; Table 13B) | IC50 (Target C [6]; [8]) | AC50 (HTT [1]; [14]) | AC50 (MYB [4]; [14]) |
| --- | --- | --- | --- | --- | --- | --- | --- | --- | --- | --- | --- | --- | --- | --- | --- | --- | --- | --- |
| > 10000 nM | 100 to 1000 nM | > 10000 nM | 1000 to 10000 nM | > 10000 nM | 1000 to 10000 nM | > 10000 nM | > 10000 nM | > 10000 nM | c1n[nH]cc1-c1ccc(-c2ccc(N3CCC(NC4CC4)C3)nn2)c2[nH]ncc12 (stereo not drawn) [Compound 306] | – | – | – | – | – | – | – | 1000 to 10000 nM | > 10000 nM |
| 100 to 1000 nM | < 100 nM | 1000 to 10000 nM | 100 to 1000 nM | 100 to 1000 nM | 100 to 1000 nM | 1000 to 10000 nM | 100 to 1000 nM | 100 to 1000 nM | Cn1cc(-c2c(F)cc(-c3ccc(OC4CC(C)(C)NC(C)(C)C4)nn3)c3[nH]ncc23)cn1 [Compound 319, 5-fluoro-4-(1-methylpyrazol-4-yl)-7-{6-[(2,2,6,6-tetramethylpiperidin-4-yl)oxy]pyridazin-3-yl}-1H-indazole] | – | – | – | – | – | – | – | 100 to 1000 nM | 1000 to 10000 nM |
| > 10000 nM | 1000 to 10000 nM | 1000 to 10000 nM | 1000 to 10000 nM | 1000 to 10000 nM | 1000 to 10000 nM | > 10000 nM | > 10000 nM | 1000 to 10000 nM | CCNC1CCN(c2ccc(-c3ccc(-c4cn[nH]c4)c4ncsc34)nn2)CC1 [Compound 410, N-ethyl-1-[6-[4-(1H-pyrazol-4-yl)-1,3-benzothiazol-7-yl]pyridazin-3-yl]piperidin-4-amine] | – | – | – | – | – | – | – | > 10000 nM | > 10000 nM |
| 100 to 1000 nM | 100 to 1000 nM | 100 to 1000 nM | 100 to 1000 nM | 1000 to 10000 nM | 1000 to 10000 nM | 1000 to 10000 nM | – | – | CN1CCN(c2ncc(-c3ccc(-c4cn[nH]c4)c4ncsc34)nn2)CC1C1CC1 (stereo not drawn) [Compound 564] | – | – | – | – | – | – | – | – | – |
